Measured values published in PubChem BioAssay AID1963841 (Molecular Pharmacology Branch, DTP, NCI, 2024).

System: 439559-082-T-J2-PDC spheroid viability
Assay: Anticancer human tumor 439559-082-T-J2-PDC patient-derived colon adenocarcinoma cell line growth inhibition [POLQ]
Conditions: spheroids with HUVEC and MSC; for IC50: curve of first compound; for viability, T/C: stronger effect = lower value
Description: Multicellular complex tumor spheroid response to Polymerase (POL) inhibitors (novobiocin, ART-558, RP6685) in combination with a variety of drugs and investigational agents in selected tumor cell lines
The POL inhibitors (novobiocin, ART-558, and RP6685) were evaluated both individually and in combination with standard of care and investigational anticancer small molecules within a complex spheroid model of solid tumors. . Complex spheroids include a stromal component modeled by human endothelial cells (HUVEC) and fibroblasts modeled by human mesenchymal stem cells (MSCs). The concentration ranges selected for each drug and investigational agent were based upon clinically achievable concentrations if the clinical Cmax of the agent was known.
Compounds. The drugs and investigational agents: novobiocin (NSC847541), ART-558 (NSC835418), RP-6685 (NSC848927), peposertib (NSC802822), ceralasertib (NSC780249), elimusertib (NSC800525), camonsertib (NSC841442), AZD-1390 (NSC803789), olaparib (NSC753686), talazoparib (NSC767125), rucaparib (NSC756644), sotorasib (NSC818433), MRTX-1133 (NSC836407), SN-38 (NSC673596), topotecan (NSC609699), epotoside (NSC141540), doxorubicin (NSC123127), gemcitabine (NSC613327), 5-fluorouracil (NSC19893), paclitaxel (NSC125973), vemurafenib (NSC761431), MSA-2 (NSC828583), SN-011 (NSC837082), adavosertib (NSC754352), prexasertib (NSC758257), carboplatin (NSC241240) and oxaliplatin (NSC266046), were obtained from the National Cancer Institute (NCI) Developmental Therapeutics Program Chemical Repository (21). The FDA-approved anticancer drug set is available from the Developmental Therapeutics Program at https://dtp.cancer.gov/organization/dscb/obtaining/. […] The stock solutions were prepared in dimethyl sulfoxide (DMSO, Sigma-Aldrich, St. Louis, MO, cat. D2650), except for the platinum compounds which were prepared in saline (Quality Biological, Gaithersburg, MD, cat. 114-055-101), at 800-fold the tested concentration and stored at -70 degrees C prior to their use. All drugs and investigational agents were tested over a range starting from a high concentration at or near the clinical Cmax and decreasing in half-log increments. If the clinical Cmax for an agent had not been determined, the highest concentration tested was 10 microM, except for SN-38, which was tested at a high concentration of 1 microM.
Cell Culture. All cells were maintained in an incubator at 37 degrees C and 5% CO2 with 95% humidity. The PDC lines were cultured according to standard operating procedures established by the NCI PDMR (https://pdmr.cancer.gov). Table 3 of the manuscript, lists the cell lines along with the number of the three cell types plated to form the mct-spheroids and media for tumor cell growth. After thawing, all PDC lines, except 997537-175-T-J1-PDC and 415267-285-R-J2-PDC, were cultured in Matrigel-coated flasks prepared with a working solution of 1X Ham's F-12 nutrient mix, without supplementation (Thermo Fisher Scientific, cat. 11765054), 100 U/mL penicillin-streptomycin (Thermo Fisher Scientific, cat. 15140122), and 2.5% Matrigel (Corning Inc., Corning, NY, cat. 354248) for the first three passages. The two PDC lines 997537-175-T-J1-PDC and 415267-285-R-J2-PDC were cultured on uncoated flasks. The 857933-349-R-J2-PDC line was cultured in 6C/Colon 1B media containing advanced DMEM/F-12 (Thermo Fisher Scientific, cat. 12634028), 10 mM HEPES (Thermo Fisher Scientific, cat. 15630080), 1X GlutaMAX supplement (Thermo Fisher Scientific, cat. 35050061), 0.1 mg/mL primocin (InvivoGen, San Diego, CA, cat. ant-pm-2), 10% defined fetal bovine serum, heat inactivated (HyClone Laboratories Inc., Logan, UT, cat. SH30070.03HI), 50% L-WRN conditioned media (ATCC, cat. CRL-3276), 1.25 mM N-Acetyl-L-cysteine (Sigma-Aldrich, cat. A9165), 10 mM nicotinamide (Sigma-Aldrich, cat. N0636), 1X B-27 supplement (Thermo Fisher Scientific, cat. 17504044), 1X N-2 supplement (Thermo Fisher Scientific, cat. […]
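Further: spheroids exposed to compounds for seven days before readout.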
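Wherever viability, T/C is given: 100% = DMSO vehicle control viability.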

Structure (SMILES): COc1cccc2c1C(=O)c1c(O)c3c(c(O)c1C2=O)CC(O)(C(=O)CO)CC3OC1CC(N)C(O)C(C)O1 (configuration not stated) + COC1C(OC(N)=O)C(O)C(Oc2ccc3c(O)c(NC(=O)c4ccc(O)c(CC=C(C)C)c4)c(=O)oc3c2C)OC1(C)C
- IC50 (second compound 0.0316 µM): 9.87 µM
- IC50 (second compound 0.1 µM): > 10 µM
- IC50 (second compound 0.316 µM): 6.36 µM
- IC50 (second compound 1 µM): 9.5 µM
- IC50 (second compound 3.16 µM): 7.79 µM
- IC50 (second compound 10 µM): 7.69 µM
- viability, T/C (second compound 0.0316 µM, first compound 0.0316 µM): 94.1%
- viability, T/C (second compound 0.0316 µM, first compound 0.1 µM): 102%
- viability, T/C (second compound 0.0316 µM, first compound 0.316 µM): 88.1%
- viability, T/C (second compound 0.0316 µM, first compound 1 µM): 70%
- viability, T/C (second compound 0.0316 µM, first compound 3.16 µM): 64.5%
- viability, T/C (second compound 0.0316 µM, first compound 10 µM): 47.9%
- viability, T/C (second compound 0.1 µM, first compound 0.0316 µM): 105%
- viability, T/C (second compound 0.1 µM, first compound 0.1 µM): 108%
- viability, T/C (second compound 0.1 µM, first compound 0.316 µM): 82.9%
- viability, T/C (second compound 0.1 µM, first compound 1 µM): 68.2%
- viability, T/C (second compound 0.1 µM, first compound 3.16 µM): 59.9%
- viability, T/C (second compound 0.1 µM, first compound 10 µM): 49.6%
- viability, T/C (second compound 0.316 µM, first compound 0.0316 µM): 97.7%
- viability, T/C (second compound 0.316 µM, first compound 0.1 µM): 98.8%
- viability, T/C (second compound 0.316 µM, first compound 0.316 µM): 77.3%
- viability, T/C (second compound 0.316 µM, first compound 1 µM): 70.2%
- viability, T/C (second compound 0.316 µM, first compound 3.16 µM): 59.7%
- viability, T/C (second compound 0.316 µM, first compound 10 µM): 44.3%
- viability, T/C (second compound 1 µM, first compound 0.0316 µM): 98.8%
- viability, T/C (second compound 1 µM, first compound 0.1 µM): 104%
- viability, T/C (second compound 1 µM, first compound 0.316 µM): 84.7%
- viability, T/C (second compound 1 µM, first compound 1 µM): 65.8%
- viability, T/C (second compound 1 µM, first compound 3.16 µM): 56.1%
- viability, T/C (second compound 1 µM, first compound 10 µM): 47.7%
- viability, T/C (second compound 3.16 µM, first compound 0.0316 µM): 104%
- viability, T/C (second compound 3.16 µM, first compound 0.1 µM): 98.9%
- viability, T/C (second compound 3.16 µM, first compound 0.316 µM): 85.2%
- viability, T/C (second compound 3.16 µM, first compound 1 µM): 66.4%
- viability, T/C (second compound 3.16 µM, first compound 3.16 µM): 61.8%
- viability, T/C (second compound 3.16 µM, first compound 10 µM): 46.2%
- viability, T/C (second compound 10 µM, first compound 0.0316 µM): 95.3%
- viability, T/C (second compound 10 µM, first compound 0.1 µM): 105%
- viability, T/C (second compound 10 µM, first compound 0.316 µM): 85.9%
- viability, T/C (second compound 10 µM, first compound 1 µM): 67.5%
- viability, T/C (second compound 10 µM, first compound 3.16 µM): 61.4%
- viability, T/C (second compound 10 µM, first compound 10 µM): 45.4%
